Where “and” joins values, the source holds several entries; their conditions need not be identical. Equal values may be shown once. Toxic doses and inconclusive results are not listed. No stated cut-off is given here; in the data, active means T/C of 150% or more; inactive means T/C below 125%.
System: L1210 leukemia ip in BDF1 mice, survival T/C
Assay: NCI In Vivo Anticancer Drug Screen. Data for tumor model L1210 Leukemia (intraperitoneal) in B6D2F1 (BDF1) mice
Conditions: endpoint: mean survival time, higher = longer survival
How it was run: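 Tumor cells were implanted, animals were treated, and survival was followed. The result divides the treated measurement by the vehicle-control measurement.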

[1] = dose: 100.0 mg/kg/injection, schedule: Q01DX001 (ip), vehicle: carboxymethylcellulose (CMC)
[2] = dose: 200.0 mg/kg/injection, schedule: Q01DX001 (ip), vehicle: carboxymethylcellulose (CMC)
[3] = dose: 400.0 mg/kg/injection, schedule: Q01DX001 (ip), vehicle: carboxymethylcellulose (CMC)
[4] = dose: 100.0 mg/kg/injection, schedule: Q01DX009 (ip), vehicle: Klucel (hydroxypropylcellulose) (HPC)
[5] = dose: 200.0 mg/kg/injection, schedule: Q01DX009 (ip), vehicle: Klucel (hydroxypropylcellulose) (HPC)
[6] = dose: 400.0 mg/kg/injection, schedule: Q01DX009 (ip), vehicle: Klucel (hydroxypropylcellulose) (HPC)
[7] = dose: 100.0 mg/kg/injection, schedule: Q04DX003 (ip), vehicle: saline with Tween-80
[8] = dose: 200.0 mg/kg/injection, schedule: Q04DX003 (ip), vehicle: saline with Tween-80
[9] = dose: 400.0 mg/kg/injection, schedule: Q04DX003 (ip), vehicle: saline with Tween-80
[10] = dose: 100.0 mg/kg/injection, schedule: Q01DX009 (ip), vehicle: saline
[11] = dose: 100.0 mg/kg/injection, schedule: Q04DX003 (ip), vehicle: saline
[12] = dose: 200.0 mg/kg/injection, schedule: Q04DX003 (ip), vehicle: saline
[13] = dose: 400.0 mg/kg/injection, schedule: Q04DX003 (ip), vehicle: saline

Measured: T/C

Oc1ccccc1/C=N/Nc1nnc(N/N=C/c2ccccc2O)c2ccccc12
inactive: dose: 50.0 mg/kg/injection, schedule: Q01DX001 (ip), vehicle: carboxymethylcellulose (CMC) 109 % of control | [1] 96 % of control | [2] 97 % of control | [3] 90 % of control

CCOC(=O)Cc1cc(=O)c2cc(OC)ccc2[nH]1
inactive: dose: 75.0 mg/kg/injection, schedule: Q01DX001 (ip), vehicle: saline 107 % of control | dose: 75.0 mg/kg/injection, schedule: Q04DX003 (ip), vehicle: saline 105 % of control | dose: 150.0 mg/kg/injection, schedule: Q01DX001 (ip), vehicle: saline 91 % of control | dose: 150.0 mg/kg/injection, schedule: Q04DX003 (ip), vehicle: saline 100 % of control | dose: 300.0 mg/kg/injection, schedule: Q01DX001 (ip), vehicle: saline 94 % of control | dose: 300.0 mg/kg/injection, schedule: Q04DX003 (ip), vehicle: saline 103 % of control

CN(C)CC/C=C1\c2ccccc2Sc2ccc(C(F)(F)F)cc21
inactive: dose: 0.78 mg/kg/injection, schedule: Q01DX009 (ip), vehicle: saline 97 % of control | dose: 0.78 mg/kg/injection, schedule: Q04DX003 (ip), vehicle: saline 102 % of control | dose: 1.56 mg/kg/injection, schedule: Q01DX009 (ip), vehicle: saline 105 % of control | dose: 1.56 mg/kg/injection, schedule: Q04DX003 (ip), vehicle: saline 105 % of control | dose: 3.12 mg/kg/injection, schedule: Q01DX009 (ip), vehicle: saline 115 % of control | dose: 3.12 mg/kg/injection, schedule: Q04DX003 (ip), vehicle: saline 100 % of control | dose: 6.0 mg/kg/injection, schedule: Q01DX Z (ip), vehicle: carboxymethylcellulose (CMC) 111 % of control | dose: 6.25 mg/kg/injection, schedule: Q04DX003 (ip), vehicle: saline 107 % of control | dose: 9.0 mg/kg/injection, schedule: Q01DX Z (ip), vehicle: carboxymethylcellulose (CMC) 103 % of control and 108 % of control | dose: 9.0 mg/kg/injection, schedule: Q01DX Z (ip), vehicle: other 110 % of control | dose: 12.5 mg/kg/injection, schedule: Q01DX009 (ip), vehicle: saline 122 % of control | dose: 12.5 mg/kg/injection, schedule: Q04DX003 (ip), vehicle: saline 105 % of control | dose: 14.0 mg/kg/injection, schedule: Q01DX Z (ip), vehicle: carboxymethylcellulose (CMC) 100 % of control and 111 % of control | dose: 17.5 mg/kg/injection, schedule: Q01DX001 (ip), vehicle: saline 114 % of control | dose: 21.0 mg/kg/injection, schedule: Q01DX Z (ip), vehicle: carboxymethylcellulose (CMC) 103 % of control | dose: 21.0 mg/kg/injection, schedule: Q01DX Z (ip), vehicle: other 110 % of control | dose: 31.0 mg/kg/injection, schedule: Q01DX Z (ip), vehicle: carboxymethylcellulose (CMC) 110 % of control | dose: 35.0 mg/kg/injection, schedule: Q01DX001 (ip), vehicle: saline 104 % of control | dose: 50.0 mg/kg/injection, schedule: Q04DX003 (ip), vehicle: saline 120 % of control | dose: 70.0 mg/kg/injection, schedule: Q01DX001 (ip), vehicle: saline 108 % of control | dose: 140.0 mg/kg/injection, schedule: Q01DX001 (ip), vehicle: saline 123 % of control

O=C(Nc1cc([N+](=O)[O-])ccc1Cl)Nc1ccccc1C(F)(F)F
inactive: [4] 104 % of control | [5] 94 % of control | [6] 93 % of control

O=C(Nc1ccc([N+](=O)[O-])cc1)c1ccc([N+](=O)[O-])cc1
inactive: [7] 94 % of control | [8] 94 % of control | [9] 89 % of control

CC1=CCC(C(C)C)C=C1 (stereo not given)
inactive: dose: 25.0 mg/kg/injection, schedule: Q01DX009 (ip), vehicle: Klucel (hydroxypropylcellulose) (HPC) 101 % of control | dose: 50.0 mg/kg/injection, schedule: Q01DX009 (ip), vehicle: Klucel (hydroxypropylcellulose) (HPC) 96 % of control | [4] 102 % of control | [10] 93 % of control | [11] 96 % of control | [5] 96 % of control | [12] 98 % of control | [13] 97 % of control

COc1ccc(C(=O)c2ccc3ccccc3c2)cc1
inactive: [1] 92 % of control | [2] 92 % of control | [3] 94 % of control

O=C(Nc1cccc2ccccc12)c1ccc([N+](=O)[O-])s1
inactive: dose: 50.0 mg/kg/injection, schedule: Q01DX005 (ip), vehicle: water 87 % of control | dose: 100.0 mg/kg/injection, schedule: Q01DX005 (ip), vehicle: water 89 % of control | dose: 200.0 mg/kg/injection, schedule: Q01DX005 (ip), vehicle: water 87 % of control | dose: 400.0 mg/kg/injection, schedule: Q01DX005 (ip), vehicle: water 91 % of control

O=[N+]([O-])c1ccc(SNc2ccc(O)cc2)cc1[N+](=O)[O-]
inactive: [4] 101 % of control | dose: 100.0 mg/kg/injection, schedule: Q04DX003 (ip), vehicle: Klucel (hydroxypropylcellulose) (HPC) 94 % of control | [5] 100 % of control | dose: 200.0 mg/kg/injection, schedule: Q04DX003 (ip), vehicle: Klucel (hydroxypropylcellulose) (HPC) 100 % of control | [6] 105 % of control | dose: 400.0 mg/kg/injection, schedule: Q04DX003 (ip), vehicle: Klucel (hydroxypropylcellulose) (HPC) 95 % of control

NC(=O)C1=CN(CCc2ccccc2)c2ccccc2C1S(=O)(=O)O (stereo not given)
inactive: dose: 75.0 mg/kg/injection, schedule: Q01DX001 (ip), vehicle: other 98 % of control | dose: 150.0 mg/kg/injection, schedule: Q01DX001 (ip), vehicle: other 94 % of control | dose: 300.0 mg/kg/injection, schedule: Q01DX001 (ip), vehicle: other 96 % of control

CC(=O)O/N=C(/CCC(=O)O)c1ccccc1
inactive: dose: 50.0 mg/kg/injection, schedule: Q04DX002 (ip), vehicle: saline with Tween-80 97 % of control | dose: 100.0 mg/kg/injection, schedule: Q04DX002 (ip), vehicle: saline with Tween-80 108 % of control | dose: 200.0 mg/kg/injection, schedule: Q04DX002 (ip), vehicle: saline with Tween-80 94 % of control

N#Cc1cc2c3c(c1)CCCN3CCC2
inactive: dose: 50.0 mg/kg/injection, schedule: Q01DX009 (ip), vehicle: saline with Tween-80 91 % of control | dose: 100.0 mg/kg/injection, schedule: Q01DX009 (ip), vehicle: saline with Tween-80 93 % of control | dose: 200.0 mg/kg/injection, schedule: Q01DX009 (ip), vehicle: saline with Tween-80 90 % of control | dose: 400.0 mg/kg/injection, schedule: Q01DX009 (ip), vehicle: saline with Tween-80 96 % of control

CCOP(=S)(OCC)OP(=S)(OCC)OCC
inactive: dose: 1.0 mg/kg/injection, schedule: Q01DX009 (ip), vehicle: other 108 % of control | dose: 1.0 mg/kg/injection, schedule: Q04DX003 (ip), vehicle: other 100 % of control | dose: 2.0 mg/kg/injection, schedule: Q01DX009 (ip), vehicle: other 90 % of control | dose: 2.0 mg/kg/injection, schedule: Q04DX003 (ip), vehicle: other 97 % of control | dose: 4.0 mg/kg/injection, schedule: Q04DX003 (ip), vehicle: other 100 % of control

S=C(Nc1nccs1)Nc1nccs1
inactive: dose: 100.0 mg/kg/injection, schedule: Q01DX001 (ip), vehicle: Klucel (hydroxypropylcellulose) (HPC) 100 % of control | dose: 200.0 mg/kg/injection, schedule: Q01DX001 (ip), vehicle: Klucel (hydroxypropylcellulose) (HPC) 97 % of control | dose: 400.0 mg/kg/injection, schedule: Q01DX001 (ip), vehicle: Klucel (hydroxypropylcellulose) (HPC) 89 % of control

COC(=O)NCCc1cc(OC)c(OC)cc1Br
inactive: [7] 86 % of control | [8] 91 % of control | [9] 91 % of control

CC(C)N1c2c(nc(N)[nH]c2=O)NCC1CNc1ccc(C(=O)NC(CCC(=O)O)C(=O)O)cc1 (stereo not given)
inactive: [10] 102 % of control | [11] 104 % of control | dose: 200.0 mg/kg/injection, schedule: Q01DX009 (ip), vehicle: saline 102 % of control | [12] 98 % of control | dose: 400.0 mg/kg/injection, schedule: Q01DX009 (ip), vehicle: saline 102 % of control | [13] 98 % of control

— PubChem BioAssay AID248 (DTP/NCI, 2004)
